Reference: paper PMC6089501 (Journal of Medicinal Chemistry, 2018)
Converted amounts (≈) assume the structure as drawn. “And” between values parts separate entries of the source, which are not always exact repeats. Equal values may be shown once. Read-outs that look alike come from different tables or passages of the source.

Columns and labels:
[1] = tested on: Madin Darby Canine Kidney (MDCK)
M. tuberculosis H37Rv [2] = experiment: microbe, parasite or virus in culture; type: cell-based, Mycobacterium tuberculosis; conditions: for MIC90 / MIC / IC90: Mycobacterium tuberculosis, H37RV; for MIC90: read-out: MIC (MIC90); for IC90: read-out: TB-IC90_OD GEOM_MEAN
Vero cells [3] = experiment: cells; conditions: Chlorocebus sabaeus, read-out: VERO IC50
Procedure: (§1) Compounds were solubilized in DMSO and assayed as a 10-point 3-fold serial dilution. Compounds were incubated with cells for 2 days at 37 °C, 5% CO2. CellTiter-Glo Reagent (Promega) was added and relative luminescent units (RLU) measured.

in vitro = conditions: dog, MDCK-MDR1
M. tuberculosis H37Rv [4] = tested on: M. tuberculosis H37Rv; parameters: species or system Mycobacterium tuberculosis; conditions: in vivo
Vero cells [5] = conditions: read-out: VERO IC50
Procedure: as §1

physchem [6] = experiment: physchem
physchem [7] = conditions: aqueous with cosolvent or surfactant or cyclodextrin, kinetic from dmso stock
in vivo = conditions: female, C57 Black, mouse, po, 10 mg/kg
Procedure: Test compound was dosed as a bolus solution intravenously at 3 mg of free base/kilogram (dose volume 5 mL/kg; dose vehicle Saline or 10% DMSO; 40% PEG400; 50% saline) to female C57 Black (n = 3) or dosed orally by gavage as a solution at 10 mg of free base/kilogram (dose volume 10 mL/kg; dose vehicle 10% DMSO; 40% PEG400; 50% distilled water) to female C57 Black (n = 3/dose level). Blood samples were taken from each mouse tail vein at predetermined time points postdose, mixed with two volumes of distilled water, and stored frozen until UPLC/MS/MS analysis. Pharmacokinetic parameters were derived from the blood concentration time curve using PK Solutions software v 2.0 (Summit Research Services, USA).

Row | SMILES | MIC90 (M. tuberculosis H37Rv [2]) | IC50 (Vero cells [3]) | Cli mouse (female, CD1, mouse, pH 7.4) | CL mouse MEAN (mouse, microsomes) | IC90 (M. tuberculosis H37Rv [2]) | IC50 (Vero cells [5]) | chromatographic logD (physchem [6]) | solubility kinetic (physchem [7]) | further results
1 | NC(=O)c1cc(N2CCOCC2)ccc1OCCc1cccc(F)c1 [Compound 56, 2-[2-(3-Fluorophenyl)ethoxy]-5-morpholino-benzamide] | 2.8 µM (≈ 0.964 µg/mL) | > 100 µM | 6.4 mL.min^–1.g^–1 | 6.406 mL/min/g | – | – | – | – | P-glycoprotein (P-gp) efflux (in words) ([1]; MDCK-MDR1): no likely P-glycoprotein (P-gp) efflux issues; permeability (in words) ([1]; MDCK-MDR1): good permeability; P-gp Efflux B→ A/A → B ([1]; dog, MDCK): 0.7; Papp A→B (in vitro): 51 ×10⁻⁶ cm/s; Papp B→A (in vitro): 37 ×10⁻⁶ cm/s
2 | COc1c(N2C[C@@H]3CCCN[C@@H]3C2)c(F)cc2c(=O)c(C(=O)O)cn(C3CC3)c12 [Moxifloxacin] | – | – | – | – | – | – | – | – | log CFUs per mouse (lungs), individual mice (M. tuberculosis H37Rv [4]): 3.8 log CFU (2×) and 4.4 log CFU and 4.0 log CFU and 3.9 log CFU; log CFUs per mouse (lungs), mean (M. tuberculosis H37Rv [4]): 4.0 log CFU; reduction of CFU lung number with respect to untreated mice (M. tuberculosis H37Rv [4]): 2.8 logs
3 | CNC(=O)c1sc(N2CCOCC2)cc1OCCc1ccccc1 [Compound 21, N-Methyl-5-morpholino-3-(2-phenylethoxy)thiophene-2-carboxamide] | 0.12 µM (≈ 0.0416 µg/mL) | 91 µM | 36 mL.min^–1.g^–1 | 35.49 mL/min/g | 0.133 µM | 72.4 µM | 2.44 | – | MIC (M. tuberculosis H37Rv [2]; read-out: MIC WT): 0.08 µM
4 | O=C(NO)c1sc(N2CCOCC2)cc1OCCc1ccccc1 [Compound 16, 5-Morpholino-3-(2-phenylethoxy)thiophene-2-carbohydroxamic Acid] | 3.5 µM (≈ 1.22 µg/mL) | 58 µM | 6 mL.min^–1.g^–1 | 6.073 mL/min/g | 3.32 µM | 58 µM | – | – | –
5 | CCOC(=O)NC(=O)c1sc(N2CCOCC2)cc1OCCc1ccccc1 [Compound 26, Ethyl N-[5-Morpholino-3-(2-phenylethoxy)thiophene-2-carbonyl]carbamate] | > 20 µM | > 100 µM | 1 mL.min^–1.g^–1 | 0.9584 mL/min/g | > 20 µM | – | 2.73 | 65.8 µM (≈ 26.6 µg/mL) | antitubercular whole cell activity (in words) (M. tuberculosis H37Rv [2]): inactive
6 | NC(=O)c1sc(N2CCOCC2)cc1OCCc1cccc(F)c1 [Compound 39, 3-[2-(3-Fluorophenyl)ethoxy]-5-morpholinothiophene-2-carboxamide] | 0.43 µM (≈ 0.151 µg/mL) | > 100 µM | 18 mL.min^–1.g^–1 | 17.63 mL/min/g | 0.469 µM | – | 2.05 | 219 µM (≈ 76.7 µg/mL) | MIC (M. tuberculosis H37Rv [2]; read-out: MIC WT): 0.53 µM
7 | NC(=O)c1sc(-n2cnc3ccccc32)cc1OCCc1ccccc1 [Compound 33, 5-(Benzimidazol-1-yl)-3-(2-phenylethoxy)thiophene-2-carboxamide] | > 20 µM | > 100 µM | 28 mL.min^–1.g^–1 | 28.23 mL/min/g | > 20 µM | – | 2.39 | 27.5 µM (≈ 9.99 µg/mL) | antitubercular whole cell activity (in words) (M. tuberculosis H37Rv [2]): inactive
8 | NC(=O)c1sc(N2CCOCC2=O)cc1OCCc1ccccc1 [Compound 29, 5-(3-Oxomorpholino)-3-phenethoxythiophene-2-carboxamide] | 15 µM (≈ 5.2 µg/mL) | > 100 µM | 7 mL.min^–1.g^–1 | 6.629 mL/min/g | 10 µM | – | – | 79 µM (≈ 27.4 µg/mL) | drop in potency / activity (M. tuberculosis H37Rv [2]): > 10 fold
9 | O=C(NCC(F)(F)F)c1sc(N2CCOCC2)cc1OCCc1ccccc1 [Compound 23, 5-Morpholino-3-phenethoxy-N-(2,2,2-trifluoroethyl)thiophene-2-carboxamide] | 3.4 µM (≈ 1.41 µg/mL) | > 100 µM | 30 mL.min^–1.g^–1 | 30.19 mL/min/g | 3.32 µM | – | 3.11 | 67 µM (≈ 27.8 µg/mL) | –
10 | CCNC(=O)c1sc(N2CCOCC2)cc1OCCc1ccccc1 [Compound 22, N-Ethyl-5-morpholino-3-(2-phenylethoxy)thiophene-2-carboxamide] | 1.7 µM (≈ 0.613 µg/mL) | 56 µM | 50 mL.min^–1.g^–1 | 50 mL/min/g | 1.67 µM | 56 µM | – | – | –
11 | COCCc1ccc(OCC(O)CNC(C)C)cc1 (stereo not shown) [Metoprolol, reference compound] | – | – | – | – | – | – | – | – | Papp A→B (in vitro): 55 ×10⁻⁶ cm/s; Papp B→A (in vitro): 40 ×10⁻⁶ cm/s
12 | O=C(NC1CCC1)c1sc(N2CCOCC2)cc1OCCc1ccccc1 [Compound 24, N-Cyclobutyl-5-morpholino-3-phenethoxythiophene-2-carboxamide] | > 20 µM | 24 µM | 0.5 mL.min^–1.g^–1 | 0.5 mL/min/g | > 20 µM | 24 µM | 3.21 | 175 µM (≈ 67.6 µg/mL) | –
13 | NC(=O)c1sc(N2CCCCC2)cc1OCCc1ccccc1 [Compound 28, 3-(2-Phenylethoxy)-5-(1-piperidyl)thiophene-2-carboxamide] | 8.9 µM (≈ 2.94 µg/mL) | > 100 µM | 42 mL.min^–1.g^–1 | 42.23 mL/min/g | 11 µM | – | 3.04 | 78.5 µM (≈ 25.9 µg/mL) | –
14 | NC(=O)c1sc(N2CCOCC2)cc1OCCc1ccccc1F [Compound 38] | 3.4 µM (≈ 1.19 µg/mL) | 84 µM | 25 mL.min^–1.g^–1 | – | 3.7 µM | 83.2 µM | 2.05 | – | CL mouse MEAN (female, CD1, mouse, microsomes, pH 7.4): 25.22 mL/min/g
15 | CNC(=O)c1sc(N2CC3CC2CO3)cc1OCCc1ccccc1 (stereo not shown) [Compound 30, 5-(2-Oxa-5-azabicyclo[2.2.1]heptan-5-yl)-N-methyl-3-phenethoxythiophene-2-carboxamide] | 3.8 µM (≈ 1.36 µg/mL) | 72 µM | 13 mL.min^–1.g^–1 | 12.51 mL/min/g | 3.64 µM | 69.2 µM | – | – | drop in potency / activity (M. tuberculosis H37Rv [2]): > 5 fold
16 | CON(C)C(=O)c1sc(N2CCOCC2)cc1OCCc1ccccc1 [Compound 25, N-Methoxy-N-methyl-5-morpholino-3-phenethoxythiophene-2-carboxamide] | 1.8 µM (≈ 0.678 µg/mL) | – | 0.5 mL.min^–1.g^–1 | 0.5 mL/min/g | 1.7 µM | – | – | – | MIC (M. tuberculosis H37Rv [2]; read-out: H37Rv MIC): 0.64 µg/mL; in vitro mouse Clint (mouse, microsomes): <0.5 mL/min/g; AUC (in vivo): 86.7 ng·h/mL
17 | c1ccc(CCOc2csc(N3CCOCC3)c2)cc1 [Compound 19, 4-[4-(2-Phenylethoxy)-2-thienyl]morpholine] | > 20 µM | 68 µM | 37 mL.min^–1.g^–1 | 37.17 mL/min/g | > 20 µM | 61.7 µM | 1.96 | 174 µM (≈ 50.2 µg/mL) | –
18 | NC(=O)c1sc(-n2nccn2)cc1OCCc1ccccc1 [Compound 34, 3-(2-Phenylethoxy)-5-(triazol-2-yl)thiophene-2-carboxamide] | 2 µM (≈ 0.629 µg/mL) | > 100 µM | 30 mL.min^–1.g^–1 | 30.46 mL/min/g | 2.05 µM | – | 2.41 | 78.5 µM (≈ 24.7 µg/mL) | –
19 | C=C[C@H]1C[N@@]2CC[C@H]1C[C@@H]2[C@@H](O)c1ccnc2ccc(OC)cc12 [Quinidine, reference compound] | – | – | – | – | – | – | – | – | Papp B→A (in vitro): 89 ×10⁻⁶ cm/s
20 | NC(=O)c1sc(-c2ccncc2)cc1OCCc1ccccc1 [Compound 35, 3-(2-Phenylethoxy)-5-(4-pyridyl)thiophene-2-carboxamide] | 5.3 µM (≈ 1.72 µg/mL) | 5.9 µM | 41 mL.min^–1.g^–1 | 40.84 mL/min/g | 5.08 µM | 5.62 µM | 1.9 | 219 µM (≈ 71 µg/mL) | MIC (M. tuberculosis H37Rv [2]; read-out: MIC WT): 5.8 µM
